From patent US7186879B2, “Screening systems and methods for identifying modulators of xenobiotic metabolism” (Baylor College of Medicine, priority 2001, dated 2007) come the findings set out here.

Structures are written as SMILES. Entries after “also recorded” stand apart in the source; their conditions may differ.

In one data set the test system is CYP3A11. The experiment in a line: Northern blot of CYP3A11 mRNA in liver. Conditions: for induction of CYP311: CAR −/− mice; for induction of murine CYP3A11 mRNA: wild-type mice.
For data set [1], the system named is CYP2E1, CYP1A2, CYP3A11, GSTPi. The experiment in a line: Northern blot of APAP metabolizing genes in liver of wild-type and CAR null mice. The following applies: for suppression of CYP2E1 and induction of CYP1A2, CYP3A11, GSTPi: CAR null mice; for CYP1A2 mRNA / CYP2E1 mRNA levels / CYP3A11 mRNA / GSTPi mRNA: wild-type animals, three days pretreatment. As for the experimental part: CAR (+/+) or CAR (−/−) animals pretreated with phenobarbital (PB), TCPOBOP (TC), or vehicle alone were administered a 250 mg/kg dose of APAP by intraperitoneal injection (n=5–7 per treatment group) (FIG. 11A). […] Liver sections from different treatments were examined by histological staining (FIG. 11B). Liver samples from all treated animals were analyzed but only representative histology is presented. […] CAR (+/+) or CAR (−/−) animals were pretreated with PB, TCPOBOP (TC), or vehicle alone for three days (FIG. 11C). […] Liver samples treated as indicated were collected two hours after APAP and GSH levels were measured (n=5–7) (FIG. 11D).
CAR (+/+) and CAR (−/−) animals were given 250 mg/kg, 500 mg/kg, or 800 mg/kg doses of APAP, respectively (FIG. 12A). […] Total liver RNA was prepared from 500 mg/kg APAP treated CAR (+/+) and CAR (−/−) livers at 0 and 2 hours as indicated. […] The same blot was stripped and re-probed with β-actin as loading control.
For histologic examination of the treated mice, the left lobe of the livers was removed and immediately fixed in 4% formaldehyde-PBS solution, embedded in paraffin, sectioned at 5 μm, and stained with hematoxylin and eosin. Samples were examined under a light microscope. For RNA studies, total RNA was extracted using TRIzol Reagent (Invitrogen Life Technologies, Carlsbad, Calif.) according to the manufacture's instruction. Equivalent amount of RNA from 3–5 mice were pooled and 10 μg of each sample was subjected to northern blot analysis. […] Hepatic non-protein thiol was measured as an indication of hepatic GSH content. Mice were sacrificed two hours after intraperitoneal injection with APAP. […] Supernatant (0.5 ml) was mixed with 1.5 ml 0.1 mM Ellman's reagent [5,5′-dithio-bis(2-nitrobenzoic acid)] […] Absorbance was read at 412 nm using GSH solutions as quantitative standards.

A further data set has as its target T1, human CAR (Homo sapiens, UniProt Q14994).
T1 sequence (Q14994 1-348 isoform Q14994-2): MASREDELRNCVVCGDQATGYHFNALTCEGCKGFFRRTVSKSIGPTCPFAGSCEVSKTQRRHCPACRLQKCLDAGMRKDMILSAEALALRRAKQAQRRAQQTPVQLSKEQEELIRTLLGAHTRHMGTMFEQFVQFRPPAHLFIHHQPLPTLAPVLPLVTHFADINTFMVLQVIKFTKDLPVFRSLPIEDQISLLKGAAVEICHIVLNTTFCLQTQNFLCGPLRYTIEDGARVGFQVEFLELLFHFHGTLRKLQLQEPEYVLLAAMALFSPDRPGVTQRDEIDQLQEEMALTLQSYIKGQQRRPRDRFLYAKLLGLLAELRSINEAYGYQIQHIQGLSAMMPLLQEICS
The experiment in a line: CYP2B10 mRNA induction in humanized CAR mice lacking murine CAR. Conditions: mice expressing only human CAR in liver, 24 hours.

Data set [2] deals with wild-type and CAR −/− mice. The experiment in a line: Cocaine-mediated hepatotoxicity, serum ALT. Conditions: for evidence of liver damage after cocaine: CAR −/− animals; for serum ALT as acute response to cocaine: male wild-type mice pretreated three days, cocaine 30 mg/kg. The method, then: FIG. 4 is a bar graph showing the effect of PB or TCPOBOP on cocaine-mediated hepatotoxicity, measured as serum alanine aminotransferase (ALT) activity. Male mice were pretreated with PB or TCPOBOP for three days. Twenty-four hours after the last dose, one injection of cocaine was given to the animals. Blood was drawn 20 hours after cocaine treatment for determination of serum ALT activity.
Blood was drawn from the eye for determination of serum ALT activity.

Method for human CAR: Total RNA was prepared from the livers of the individual mice, and CYP2B10 mRNA expression was assessed by Northern blotting.
Mice heterozygous for the murine CAR gene mutation and lacking the human CAR transgene express only murine CAR. […] Mice homozygous for the murine CAR gene mutation and carrying the human CAR transgene express only human CAR in the liver.

As to `Clc1cnc(Oc2ccc(Oc3ncc(Cl)cc3Cl)cc2)c(Cl)c1` [TCPOBOP, 1,4-bis[2-(3,5-dichloropyridyloxy)]benzene], in the data set on CYP3A11, the “induction of CYP311” value was “negligible level of induction” and the “induction of murine CYP3A11 mRNA” value is listed as “substantial induction”. In addition, in data set [1], the “suppression of CYP2E1 and induction of CYP1A2, CYP3A11, GSTPi” value is listed as “Neither the suppression of CYP2E1 nor the induction of the other enzymes was observed”; the “CYP1A2 mRNA” value is “induced”; the “CYP2E1 mRNA levels” value is “modestly suppressed”; the “CYP3A11 mRNA” value is reported as “induced”. Also, the “GSTPi mRNA” value in data set [1] is “induced”. Moreover, the “induction of CYP2B10 mRNA” value on human CAR is recorded as “did not respond; also recorded: not by TCPOBOP”. Moreover, in data set [2], the “evidence of liver damage after cocaine” value is given as “not observed” and the “serum ALT as acute response to cocaine” value was “significant increase”.

As to `CCC1(c2ccccc2)C(=O)NC(=O)NC1=O` [PB, phenobarbital], in the data set on CYP3A11, the “induction of CYP311” value is “negligible level of induction” and the “induction of murine CYP3A11 mRNA” value is recorded as “substantial induction”. In addition, in data set [1], the “suppression of CYP2E1 and induction of CYP1A2, CYP3A11, GSTPi” value was “Neither the suppression of CYP2E1 nor the induction of the other enzymes was observed”; the “CYP1A2 mRNA” value is listed as “induced”; the “CYP2E1 mRNA levels” value is listed as “modestly suppressed”; the “CYP3A11 mRNA” value was “induced”. Besides, the “GSTPi mRNA” value in data set [1] is “induced”. Further, the “induction of CYP2B10 mRNA” value on human CAR is listed as “induction of CYP2B10 mRNA; also recorded: induces a CAR target gene”. In addition, in data set [2], the “evidence of liver damage after cocaine” value was “not observed” and the “serum ALT as acute response to cocaine” value is “significant increase”.
